US20230339902A1, “TRICYCLIC LIGANDS FOR DEGRADATION OF IKZF2 OR IKZF4” (C4 Therapeutics, Inc., priority 2020, published 2023)

Key:
IKZF2 = target: T1, IKZF2 (Homo sapiens, UniProt Q96SW2+Q9UKS7); test: IKZF2 degradation assay, HiBiT method (Nano-Glo HiBiT Lytic Assay); type: cell-based; details: JURKAT.21 (IKZF2-HiBiT) cells, 6 hours; for DC50: read-out: HiBiT-Degradation JURKAT.21 IKZF2 6 hours DC50; for Emax: read-out: HiBiT-Degradation JURKAT.21 IKZF2 6 hours Emax
T1 construct: endogenously expressing IKZF2 with HiBiT fusion tag via CRISPR; host or cells: JURKAT.21 (IKZF2-HiBiT), CRISPR knock-in
T1 sequence (Q9UKS7 whole entry, the tested form may be a part): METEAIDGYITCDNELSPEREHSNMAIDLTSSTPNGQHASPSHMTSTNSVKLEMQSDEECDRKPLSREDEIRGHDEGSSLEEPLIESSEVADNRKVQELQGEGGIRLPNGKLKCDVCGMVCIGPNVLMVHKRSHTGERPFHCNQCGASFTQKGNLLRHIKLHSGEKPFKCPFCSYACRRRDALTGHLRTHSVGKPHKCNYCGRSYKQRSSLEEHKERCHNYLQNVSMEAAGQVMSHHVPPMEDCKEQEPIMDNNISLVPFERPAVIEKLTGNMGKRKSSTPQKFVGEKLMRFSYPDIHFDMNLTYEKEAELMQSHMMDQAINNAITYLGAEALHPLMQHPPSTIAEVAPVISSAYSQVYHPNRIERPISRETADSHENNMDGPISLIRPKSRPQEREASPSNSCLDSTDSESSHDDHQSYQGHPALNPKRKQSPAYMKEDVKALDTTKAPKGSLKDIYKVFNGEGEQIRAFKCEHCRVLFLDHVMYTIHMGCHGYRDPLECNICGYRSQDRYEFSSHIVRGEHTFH
T1 sequence (Q96SW2 whole entry, the tested form may be a part): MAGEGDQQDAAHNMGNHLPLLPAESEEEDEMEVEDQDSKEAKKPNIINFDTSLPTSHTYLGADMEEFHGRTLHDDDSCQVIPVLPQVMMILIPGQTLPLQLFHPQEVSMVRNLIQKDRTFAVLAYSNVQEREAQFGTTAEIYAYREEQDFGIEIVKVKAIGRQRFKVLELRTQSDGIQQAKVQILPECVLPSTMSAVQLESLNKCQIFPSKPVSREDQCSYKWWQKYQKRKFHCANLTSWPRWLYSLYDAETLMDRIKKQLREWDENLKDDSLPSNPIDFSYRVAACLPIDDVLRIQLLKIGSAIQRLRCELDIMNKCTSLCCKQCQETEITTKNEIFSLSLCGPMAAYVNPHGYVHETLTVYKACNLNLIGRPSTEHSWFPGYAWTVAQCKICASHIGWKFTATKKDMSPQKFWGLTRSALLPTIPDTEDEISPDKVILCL
T1 sequence (Q16531 whole entry partner, the tested form may be a part): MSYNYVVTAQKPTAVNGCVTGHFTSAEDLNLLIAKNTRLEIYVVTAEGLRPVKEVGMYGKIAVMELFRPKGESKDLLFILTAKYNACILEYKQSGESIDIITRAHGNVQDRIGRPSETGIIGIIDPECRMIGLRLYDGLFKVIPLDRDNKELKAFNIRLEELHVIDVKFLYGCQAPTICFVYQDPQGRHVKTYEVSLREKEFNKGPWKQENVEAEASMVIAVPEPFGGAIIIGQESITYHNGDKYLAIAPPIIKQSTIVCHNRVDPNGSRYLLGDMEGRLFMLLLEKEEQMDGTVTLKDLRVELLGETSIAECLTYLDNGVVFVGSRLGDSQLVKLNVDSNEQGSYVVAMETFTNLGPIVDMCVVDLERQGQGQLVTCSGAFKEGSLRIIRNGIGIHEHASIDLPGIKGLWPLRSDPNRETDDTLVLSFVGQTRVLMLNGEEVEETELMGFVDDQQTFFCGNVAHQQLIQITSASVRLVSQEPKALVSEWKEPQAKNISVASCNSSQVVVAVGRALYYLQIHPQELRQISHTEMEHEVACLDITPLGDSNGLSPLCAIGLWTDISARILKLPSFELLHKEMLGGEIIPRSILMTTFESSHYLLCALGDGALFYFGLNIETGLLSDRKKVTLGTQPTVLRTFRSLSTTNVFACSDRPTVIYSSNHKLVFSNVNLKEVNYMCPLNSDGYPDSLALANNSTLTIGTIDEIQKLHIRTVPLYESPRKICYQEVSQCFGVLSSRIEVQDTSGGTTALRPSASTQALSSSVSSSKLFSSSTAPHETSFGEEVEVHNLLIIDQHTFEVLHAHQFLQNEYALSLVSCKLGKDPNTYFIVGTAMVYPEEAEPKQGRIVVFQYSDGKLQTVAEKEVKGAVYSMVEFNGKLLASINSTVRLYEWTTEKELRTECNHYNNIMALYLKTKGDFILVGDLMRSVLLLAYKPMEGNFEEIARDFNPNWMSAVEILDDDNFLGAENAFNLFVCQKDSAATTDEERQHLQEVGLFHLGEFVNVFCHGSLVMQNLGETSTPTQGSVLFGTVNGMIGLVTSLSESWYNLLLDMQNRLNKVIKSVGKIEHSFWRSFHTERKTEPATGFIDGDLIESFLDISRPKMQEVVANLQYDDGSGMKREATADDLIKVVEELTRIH
Excerpt: Example 61 IKZF2 Degradation Assay
RPMI 1640 Medium without phenol red and fetal bovine serum (FBS) were purchased from Gibco (Grand Island, NY, USA). Nano-Glo® HiBiT Lytic Assay System was purchased from Promega (Madison, WI, USA). JURKAT.21 (IKZF2-HiBiT) cell line, endogenously expressing IKZF2 with HiBiT fusion tag via CRISPR, was purchasing from Synthego (Menlo Park, CA, USA). Cell culture flasks and 384-well microplates were acquired from VWR (Radnor, PA, USA).
IKZF2 Degradation Analysis
(§1) IKZF2 degradation was determined based on quantification of luminescent signal using Nano-Glo® HiBiT Lytic Assay kit. Test compounds were added to the 384-well plate from a top concentration of 10 µM with 11 points, half log titration in duplicates. JURKAT.216 cells were added into 384-well plates at a cell density of 5000 cells per well. The plates were kept at 37° C. with 5% CO2 for 6 or 24 hours. The cells treated in the absence of the test compound were the negative control and the cells without Nano-Glo® HiBiT Lytic reagent were the positive control. After 6-hour or 24-hour incubation, Nano-Glo® HiBiT Lytic Assay reagents were added to the cells. Luminescence was acquired on EnVision™ Multilabel Reader (PerkinElmer, Santa Clara, CA, USA).

GSPT1 = target: T2, GSPT1 (Homo sapiens, UniProt P15170+Q96SW2); test: GSPT1 degradation assay, HiBiT method (Nano-Glo HiBiT Lytic Assay); type: cell-based; details: 293T.114 (HiBiT-GSPT1) cells, 6 hours
T2 construct: endogenously expressing GSPT1 with HiBiT fusion tag via CRISPR; endogenous in cells; host or cells: 293T.114 (HiBiT-GSPT1), CRISPR knock-in, generated in house
T2 sequence (P15170 whole entry, the tested form may be a part): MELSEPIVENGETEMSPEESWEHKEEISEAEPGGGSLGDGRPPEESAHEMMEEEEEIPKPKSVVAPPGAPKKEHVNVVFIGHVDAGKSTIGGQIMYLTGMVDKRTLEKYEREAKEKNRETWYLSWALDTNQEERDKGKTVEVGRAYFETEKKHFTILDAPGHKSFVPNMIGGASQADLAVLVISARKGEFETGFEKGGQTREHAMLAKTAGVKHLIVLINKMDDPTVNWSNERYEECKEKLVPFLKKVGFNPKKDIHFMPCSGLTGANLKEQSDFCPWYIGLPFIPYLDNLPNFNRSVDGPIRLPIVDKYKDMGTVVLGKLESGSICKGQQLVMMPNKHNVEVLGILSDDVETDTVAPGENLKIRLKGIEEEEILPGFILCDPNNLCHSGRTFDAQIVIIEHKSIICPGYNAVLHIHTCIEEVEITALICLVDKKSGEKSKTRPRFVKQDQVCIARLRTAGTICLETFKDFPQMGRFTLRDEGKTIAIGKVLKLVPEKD
T2 sequence (Q96SW2 whole entry, the tested form may be a part): as the sequence (Q96SW2 whole entry, the tested form may be a part) above
T2 sequence (Q16531 whole entry partner, the tested form may be a part): as the sequence (Q16531 whole entry partner, the tested form may be a part) above
Description: Example 62 GSPT1 Degradation Assay
DMEM no-phenol red medium and fetal bovine serum (FBS) were purchased from Gibco (Grand Island, NY, USA). Nano-Glo® HiBiT Lytic Assay System was purchased from Promega (Madison, WI, USA). 293T.114 (HiBiT-GSPT1) cell line was generated in house, endogenously expressing GSPT1 with HiBiT fusion tag via CRISPR. Cell culture flasks and 384-well microplates were acquired from VWR (Radnor, PA, USA).
GSPT1 Degradation Analysis
as §1, with “GSPT1” for “IKZF2”, “293T.114” for “JURKAT.216”, “6000” for “5000”, “6” for “6 or 24”, “6-hour” for “6-hour or 24-hour”, “designated wells.” for “cells.”

| DC50 (IKZF2) [µM] | Emax (IKZF2) [%] | DC50 (GSPT1) [µM] | Emax (GSPT1) [%] | Compound |
| --- | --- | --- | --- | --- |
| > 10 | 60 to 95 | > 10 | 60 to 95 | CC(C)(C)OC(=O)N1CC(Cc2ccc3c4c(cccc24)N(C2CCC(=O)NC2=O)C3=O)C1 (stereo not drawn) [Compound 104, Tert-butyl 3-[[1-(2,6-dioxo-3-piperidyl)-2-oxo-benzo[cd]indol-5-yl]methyl]azetidine-1-carboxylate] |
| > 10 | 60 to 95 | > 10 | 60 to 95 | CC(C)NC(=O)c1ccc2c3c(cccc13)N(C1CCC(=O)NC1=O)C2=O (stereo not drawn) [Compound 112, 1-(2,6-dioxopiperidin-3-yl)-N-isopropyl-2-oxo-1,2-dihydrobenzo[cd]indole-5-carboxamide] |
| > 10 | 60 to 95 | > 10 | > 95 | CN1CC(F)(c2ccc3c4c(cccc24)N(C2CCC(=O)NC2=O)C3=O)C1 (stereo not drawn) [Compound 101] |
| > 10 | 60 to 95 | – | – | O=C1CCC(N2C(=O)c3ccc(N4CCN(Cc5ccccc5)CC4)c4cccc2c34)C(=O)N1 (stereo not drawn) [Compound 115] |
| – | – | > 10 | 60 to 95 | COc1ccccc1C(C)NC(=O)c1ccc2c3c(cccc13)N(C1CCC(=O)NC1=O)C2=O (stereo not drawn) [Compound 109, 1-(2,6-dioxopiperidin-3-yl)-N-(1-(2-methoxyphenyl)ethyl)-2-oxo-1,2-dihydrobenzo[cd]indole-5-carboxamide] |
| – | – | > 10 | 60 to 95 | CN(c1ccc2c3c(cccc13)N(C1CCC(=O)NC1=O)C2=O)C1CCN(Cc2ccccc2)C1 (stereo not drawn) [Compound 116] |
| > 10 | 60 to 95 | – | – | O=C1CCC(N2C(=O)c3ccc(C(=O)NC(c4ccccc4)C(F)(F)F)c4cccc2c34)C(=O)N1 (stereo not drawn) [Compound 110, 1-(2,6-dioxopiperidin-3-yl)-2-oxo-N-(2,2,2-trifluoro-1-phenylethyl)-1,2-dihydrobenzo[cd]indole-5-carboxamide] |

More lines, now with the values behind:

| Compound | DC50 (IKZF2) [µM] | Emax (IKZF2) [%] | DC50 (GSPT1) [µM] | Emax (GSPT1) [%] |
| --- | --- | --- | --- | --- |
| O=C1CCC(N2C(=O)c3ccc(C4CCN(Cc5ccccc5)CC4)c4nccc2c34)C(=O)N1 (stereo not drawn) [Compound 126, 3-[17-(1-benzyl-4-piperidyl)-25-oxo-27,30-diazatricyclododeca-5(17),6(18),7(19),8(27),20-pentaen-30-yl]piperidine-2,6-dione] | > 10 | 60 to 95 | – | – |
| COc1ncc(CN2CCC(c3ccc4c5c(ccnc35)N(C3CCC(=O)NC3=O)C4=O)CC2)cn1 (stereo not drawn) [Compound 127, 3-[14-[1-[(2-methoxypyrimidin-5-yl)methyl]-4-piperidyl]-24-oxo-26,31-diazatricyclododeca-1(14),2(15),3(16),4(26),18-pentaen-31-yl]piperidine-2,6-dione] | > 10 | 60 to 95 | > 10 | > 95 |
| CN1CCC(c2ccc3c4c(cccc24)N(C2CCC(=O)NC2=O)C3=O)C1 (stereo not drawn) [Compound 98, 3-[5-(1-methylpyrrolidin-3-yl)-2-oxo-benzo[cd]indol-1-yl]piperidine-2,6-dione] | > 10 | 60 to 95 | > 10 | > 95 |
| O=C1CCC(N2C(=O)c3ccc(OC4CCCC[C@@H]4N4CC(Oc5cccc(F)c5)C4)c4cccc2c34)C(=O)N1 (stereo in doubt) [Compound 117, 3-[5-[(1R)-2-[3-(3-fluorophenoxy)azetidin-1-yl]cyclohexoxy]-2-oxo-benzo[cd]indol-1-yl]piperidine-2,6-dione] | > 10 | 60 to 95 | – | – |
| O=C1CCC(N2C(=O)c3ccc(C4(F)CCN(Cc5ccccc5)CC4)c4nccc2c34)C(=O)N1 (stereo not drawn) [Compound 123, 3-[18-(1-benzyl-4-fluoro-4-piperidyl)-24-oxo-27,30-diazatricyclododeca-5(17),6(18),7(19),8(27),20-pentaen-30-yl]piperidine-2,6-dione] | – | – | > 10 | 60 to 95 |
| CN1CCN(c2ccc3c4c(cccc24)N(C2CCC(=O)NC2=O)C3=O)CC1 (stereo not drawn) [Compound 114, 3-[5-(4-methylpiperazin-1-yl)-2-oxo-benzo[cd]indol-1-yl]piperidine-2,6-dione] | – | – | > 10 | 60 to 95 |
